The record followed here is patent US10624887B2, “Compositions of (-)-17-(cyclobutylmethyl)morphinan-3,14,-diol” (priority 2010, dated 2020).

For assay [1] the following is noted: oral; dosage form that models extended release.
Assay [2] concerns streptozotocin (STZ) induced diabetes neuropathy. Nature of the assay: Streptozotocin induced diabetic neuropathy, cold allodynia (acetone drop test). The class given is in vivo, Wistar rats. The note with it: STZ diabetic neuropathic rats. How it is done:
The aim of this study was to evaluate the effect of oral administration of butorphanol in rats with streptozotocin (STZ) induced diabetes neuropathy. A single injection of streptozotocin (STZ) (40-70 mg/kg, i.p.) was used to induce diabetes in rats. The primary measurements were made mechanical and thermal allodynia designed to detect effects of the treatment(s) on neuropathic pain.
(§1) Wistar rats weighing 250±20 g were maintained on standard laboratory diet and having free access to tap water ad lib were employed in the present study. They were housed in the animal house and were exposed to 12 hr cycle of light and dark. The experiments were conducted in a semi-sound proof laboratory. Care of the animals was in accordance with guidelines for experimentation on animals.
The STZ-induced diabetes model was adapted from Arison et al (1967).
On the experimental day 1 all rats were fasted 6-8 hrs prior to STZ treatment Immediately prior to the injection, STZ was dissolved in 50 Mm sodium citrate buffer (pH 4.5) to a final concentration of 10 mg/ml. […]
(§2) For the assessment of cold allodynia, which was stable for 3 weeks, the rats were placed on a wire mesh covered with a plastic dome and were allowed to habituate until the exploratory behavior diminished. Cold allodynia was measured as the number of foot withdrawal responses after application of stimuli to the plantar surface of the paw. […] Acetone was applied two times (once every 5 min) on the left paw, and the number of reactions (shaking, tapping, or licking) was counted during 30 sec. […] The score was expressed as accumulated numbers of reactions over the trials and determined before and 30 and 60 min after administration of the test drugs. Each individual test was expressed as a percentage of maximum possible effect (% MPE): […]
(§3) MPE (%) at 30 min time point was employed as a quantitative measure of the analgesic effect of the test drugs.
The anti-nociceptive effect was plotted assessed having time (relative to dosing time point) on the x-axis and percent maximum possible effect (% MPE) on the y-axis. […]

In another assay the test system is nociception in rats. Nature of the assay: Eddy's hot plate test. The class given is in vivo, Wistar rats. The note with it: butorphanol 1 mg/kg. As for the experimental part:
Heat is often used as a noxious stimulus in models of pain. Typically, the latency of the rat's response to the thermal stimulus is recorded as the dependent variable. To determine whether a test compound has analgesic properties, the latency responses of treated and control rats are evaluated. […] The latency of response will vary depending on the type of heat stimulus used. In the hot-plate assay, the rat is placed on a heated surface and the latency for the rat to respond to the stimulus, by licking its paw or jumping, is recorded. […]
Three groups were employed in the present study with each group comprising of 8 animals. […] Hot plate latency was assessed at 0, 30, 45 and 60 minutes after administration of the butorphanol. Area under the curve was calculated using a graph between % MPE and time. Area under the curve was employed as a quantitative measure of the analgesic effect of the treatments.
Nociceptive threshold was measured with the Eddy's hot plate test. […] Reaction time is expressed as a percentage of the maximum possible effect (MPE): […]
The anti-nociceptive effect following intragastric, intra-ileal and intra-colonic administration was assessed in terms of area under the curve calculated from a graph having time (relative to dosing time point) on the x-axis and percent maximum possible effect (% MPE) on the y-axis. The results were expressed as mean±standard error of means (S.E.M.). […]

In assay [3] the test system is paclitaxel induced painful neuropathy. Nature of the assay: Paclitaxel induced painful neuropathy, cold allodynia (acetone drop test). The conditions noted are these: paclitaxel neuropathic rats. The class given is in vivo, Wistar rats.
Description: The aim of this study was to evaluate the effect of oral administration of butorphanol in rats with paclitaxel induced painful neuropathy. The primary measurements were made mechanical and thermal allodynia designed to detect effects of the treatment(s) on neuropathic pain.
as §1
Rats were injected on five alternate days (day 4, 6, 8, 10 & 12) with paclitaxel (2 mg/kg i.p.) using an injection volume of 2 ml/kg. Thus, the cumulative dose of paclitaxel was computed to be 10 mg/kg. Tests took place ten days after the last injection and continued over the next three weeks. […]
as §2, §3
The anti-nociceptive effect was plotted assessed having time (relative to dosing time point) on the x-axis and percent maximum possible effect (% MPE) on the y-axis. The results were expressed as mean±standard error of means (S.E.M.). […]

Structures are written as SMILES.

As to `Oc1ccc2c(c1)[C@@]13CCCC[C@@]1(O)[C@@H](C2)N(CC1CCC1)CC3` [butorphanol, (−)17-(Cyclobutylmethyl)morphinan-3,14-diol], the therapeutic effect entry in assay [1] is listed as “robust therapeutic effects”. Further, the cold allodynia score result is “dose dependent decrease” in assay [2] (oral 1, 3, 10, 30 mg/kg, FIG. 20) and “dose dependent decrease” in assay [3] (p.o. 0.01, 0.03, 0.1, 0.3 mg/kg, FIG. 18). In addition, the “cold allodynia withdrawal threshold in comparison to the control readings” value in assay [2] (oral) and in assay [3] (oral) was “significant increase” in each case. The “time of peak effect post-administration (cold allodynia)” value in assay [2] (oral) and in assay [3] (oral) was 30 min each time. Further, the “antinociceptive effect (area under the curve of % MPE vs time), intra-colonic versus intra-gastric or intra-ileal” value with nociception in rats (hot plate, FIG. 14) is on record as “significantly greater antinociceptive effect”. Also, in the assay with nociception in rats (intra-gastric, intra-ileal and intra-colonic administration, each, rats), the hot plate latency result is recorded as “significant increase”.
